According to patent US20100130725A1, “METHODS FOR CHARACTERIZING MOLECULES” (priority 2008, published 2010):
Values joined by “and” are separate entries in the source; they are usually repeats but may differ in a detail not shown here. Equal values may be shown once. Read-outs that look alike come from different tables or passages of the source. Ends that are not written are not given here.

Tests used:
Assay type in all cases: cell-based, human
A549 cells [1] = assay: Epic RWG biosensor DMR assay, agonist mode (primary profile), A549 cells; conditions: for DMR signal triggered by the ligand (primary profile), second ligand panel: FIG. 8: 40 μM pinacidil, 250 μg/ml poly(I:C), 8 μM PMA, 16 μM forskolin
Description: All cell lines were obtained from American Type Cell Culture (Manassas, Va.). The cell culture medium was as follows: Dulbecco's modified Eagle's medium (DMEM) supplemented with 10% fetal bovine serum (FBS), 4.5 g/liter glucose, 2 mM glutamine, and antibiotics for human epidermoid carcinoma A431 and human lung carcinoma A549.
Cells were typically grown using ˜1 to 2×10^4 cells per well at passage 3 to 15 suspended in 50 μl of the corresponding culture medium in the biosensor microplate, and were cultured at 37° C. under air/5% CO2 for ˜1 day. Except for A431, which was subject to ˜20 hr starvation through continuous culture in the serum-free DMEM, the other cell types were directly assayed without starvation. The confluency for all cells at the time of assays was ˜95% to 100%.
Epic® wavelength interrogation system (Corning Inc., Corning, N.Y.) was used for whole cell sensing. This system consists of a temperature-control unit, an optical detection unit, and an on-board liquid handling unit with robotics. The detection unit is centered on integrated fiber optics, and enables kinetic measures of cellular responses with a time interval of ˜15 sec.
The RWG biosensor is capable of detecting minute changes in local index of refraction near the sensor surface. Since the local index of refraction within a cell is a function of density and its distribution of biomass (e.g., proteins, molecular complexes), the biosensor exploits its evanescent wave to non-invasively detect ligand-induced dynamic mass redistribution in native cells. The evanescent wave extends into the cells and exponentially decays over distance, leading to a characteristic sensing volume of ˜150 nm, implying that any optical response mediated through the receptor activation only represents an average over the portion of the cell that the evanescent wave is sampling. The aggregation of many cellular events downstream the receptor activation determines the kinetics and amplitudes of a ligand-induced DMR.
(§1) For biosensor cellular assays, molecule solutions were made by diluting the stored concentrated solutions with the HBSS (1× Hanks balanced salt solution, plus 20 mM Hepes, pH 7.1), and transferred into a 384 well polypropylene molecule storage plate to prepare a molecule source plate. Both molecule and marker source plates were made separately when a two-step assay was performed. In parallel, the cells were washed twice with the HBSS and maintained in 30 μl of the HBSS to prepare a cell assay plate. Both the cell assay plate and the molecule and marker source plate(s) were then incubated in the hotel of the reader system. After ˜1 hr of incubation the baseline wavelengths of all biosensors in the cell assay microplate were recorded and normalized to zero. Afterwards, a 2 to 10 minute continuous recording was carried out to establish a baseline, and to ensure that the cells reached a steady state. Cellular responses were then triggered by pipetting 10 μl of the marker solutions into the cell assay plate using the on-board liquid handler.
First, a panel of ligands targeting GPCRs, each at 10 μM concentration, was chosen, and examined their actions on the A549 cells using DMR measurements with the Epic® system. The ligand panel included the four P2Y agonists ADP, […], UTP and UDP, the adenosine receptor agonist adenosine, the calcium sensing receptor agonist spermine, the histamine receptor agonist histamine, the adrenergic receptor agonist epinephrine, the free fatty acid receptor agonist elaidic acid, the lipoxin receptor agonist lipoxin A4, the bradykinin receptor agonist bradykinin, the adrenodullin receptor agonist adrenodullin, the PAR1 agonist SFLLR-amide, the angiotensin receptor agonist angiotensin, the neuropeptide Y receptor agonist neuropeptide Y, and the PAR2 agonist SLIGKV-amide.
Next, a second ligand panel was chosen, and examined their actions on the A549 cells using DMR measures with the Epic® system.

quiescent A431 cells = assay: Epic DMR two-step assay, antagonist mode: modulation of marker-induced DMR signals in quiescent A431 cells
Description: as §1
Next, the target specificity and signaling pathway of EGF was probed using a second set of assays.
A first panel of markers was contacted with quiescent A431 cells at concentrations close to each of the marker's EC80 or EC100, and DMR measurements were obtained with and EPIC® system. This panel of markers was selected from a library of markers identified in A431 cells using Epic® cellular assays. This panel included epidermal growth factor (EGF), epinephrine, nicotinic acid, and histamine. Each of these markers leads to a wide array of cell signaling. […] Each DMR signal represents an averaged response of 4 replicates.
A DMR index was generated for four ligand molecules. Quiescent A431 and proliferating A549 cells were separately exposed to the ligand molecules for about 1 hr to generate their primary profiles, followed by stimulation with each marker at a fixed concentration (as mentioned in FIGS. 7 and 8) for another 1 hr or so to generate secondary profiles of the molecule against the panels of markers in both types of cells. Next, one or more specific DMR parameters were chosen as a readout for plotting the DMR index of the molecule. For the pinacidil DMR response in A549, the amplitude of the N-DMR (i.e., the amplitude 30 min after stimulation) was chosen. For the poly(I:C) DMR response in A549, the amplitude of the late DMR (i.e., the amplitude 50 min after stimulation) was chosen. For the PMA response in A549, the late DMR amplitude (i.e., the amplitude 50 min after stimulation) was chosen.

A549 cells [2] = assay: Epic DMR two-step assay, antagonist mode: modulation of marker-induced DMR signals in A549 cells; conditions: molecule 10 μM
Description: as §1
A second panel of markers was contacted with A549 cells at concentrations close to each of the marker's EC80 or EC100, and DMR measurements were obtained with and EPIC® system. This panel included poly(I:C), SLIGKV-amide, pinacidil, PMA, histamine, and forskolin. Each of these markers also leads to a wide array of cell signaling. Using Epic® cellular assays in conjunction with chemical biology and cell biology approach similar to the EGFR DMR mentioned above, we have determined the pathway(s) and network interaction(s) that is accounted for each marker-induced DMR signal in A549 cells. The main observations are summarized below. Poly(I:C) is an agonist for endogenous Toll-like receptor(s) in A549, whose activation leads to IKK pathway and AKT pathway. SLIGKV-amide is an agonist for endogenous protease activated receptor subtype 2 (PAR2) in A549, whose activation leads to Gq-, Gi- and G12/13-mediated signaling. Pinacidil is an opener for endogenous ATP-sensitive potassium (KATP) ion channel in A549, whose activation leads to Rho- and JAK-mediated signaling. PMA is an activator for protein kinase C (PKC), whose activation leads to PKC pathway and degranulation. Histamine is a natural agonist for endogenous histamine receptors (dominantly H1R, and possibly H3R), whose activation leads to dual signaling, possibly through Gq and Gi mediated signaling in A549. Forskolin is an activator for adenylyl cyclases, whose activation leads to cAMP-PKA pathway in A549. […] Each DMR signal represents an averaged response of 4 replicates.
A DMR index was generated for four ligand molecules. Quiescent A431 and proliferating A549 cells were separately exposed to the ligand molecules for about 1 hr to generate their primary profiles, followed by stimulation with each marker at a fixed concentration (as mentioned in FIGS. 7 and 8) for another 1 hr or so to generate secondary profiles of the molecule against the panels of markers in both types of cells. Next, one or more specific DMR parameters were chosen as a readout for plotting the DMR index of the molecule. For the pinacidil DMR response in A549, the amplitude of the N-DMR (i.e., the amplitude 30 min after stimulation) was chosen. For the poly(I:C) DMR response in A549, the amplitude of the late DMR (i.e., the amplitude 50 min after stimulation) was chosen. For the PMA response in A549, the late DMR amplitude (i.e., the amplitude 50 min after stimulation) was chosen. For the SLIGKV-amide DMR response in A549, the P-DMR amplitude (i.e., the amplitude 20 min after stimulation) was chosen. For the forskolin response in A549 cells, the P-DMR amplitude (i.e., the amplitude 50 min after stimulation) was chosen. For the histamine response in A549, both the early DMR amplitude (i.e., amplitude 10 min after stimulation) and the late response (i.e., the amplitude 30 min after stimulation) were chosen. […]

[3] = quiescent A431, ligand 10 μM, about 1 hr pretreatment, 32 nM EGF

`Nc1ncnc2c1ncn2[C@@H]1O[C@H](COP(=O)(O)OP(=O)(O)O)[C@@H](O)[C@H]1O` [ADP] was tested, and the “DMR signal triggered by the ligand (primary profile)” value (A549 cells [1]; A549 cells, ligand 10 μM) was “robust DMR signals”.
In the case of `COc1cc2ncnc(Nc3cccc(Cl)c3)c2cc1OC` [AG1478], the “modulation of the EGF-induced DMR signal” value (quiescent A431 cells; [3]) is reported as “almost completely blocked”.
`Nc1ncnc2c1ncn2[C@@H]1O[C@H](COP(=O)(O)OP(=O)(O)OP(=O)(O)O)[C@@H](O)[C@H]1O` [AT] was tested, and the “DMR signal triggered by the ligand (primary profile)” value (A549 cells [1]; A549 cells, ligand 10 μM) was “robust DMR signals”.
For `CNCCNS(=O)(=O)c1cccc2cnccc12` [H8], the “modulation of the epinephrine response” value (quiescent A431 cells; A431, molecule 10 μM) was “less effective at attenuating” and the “modulation of the histamine response” value (quiescent A431 cells; A431, molecule 10 μM) was “less effective at attenuating”.
In the case of `O=S(=O)(c1cccc2cnccc12)N1CCCNCC1` [HA1077], the “modulation of the PMA response” value (A549 cells [2]) is reported as “significantly potentiated”, the “modulation of the histamine response” value (A549 cells [2]) is reported as “significantly potentiated” and the “modulation of the pinacidil response” value (A549 cells [2]) is reported as “almost completely attenuated”. The “modulation of PMA-induced DMR response (late DMR amplitude)” value (A549 cells [2]; 8 μM PMA, amplitude 50 min after stimulation) was “+36%”, the “modulation of SLIGKV-amide-induced DMR response (P-DMR amplitude)” value (A549 cells [2]; 8 μM SLIGKV-amide, amplitude 20 min after stimulation) was “+22%” and the “modulation of histamine-induced DMR response (early P-DMR)” value (A549 cells [2]; 10 μM histamine, amplitude 10 min after stimulation) was “+26%”. The “modulation of histamine-induced DMR response (late P-DMR)” value (A549 cells [2]; 10 μM histamine, amplitude 30 min after stimulation) was “+55%”, the “modulation of forskolin-induced DMR response (P-DMR amplitude)” value (A549 cells [2]; 16 μM forskolin, amplitude 50 min after stimulation) was “+18%” and the “modulation of poly(I:C)-induced DMR response (late DMR amplitude)” value (A549 cells [2]; 250 μg/ml poly(I:C), amplitude 50 min after stimulation) was “+18%”. The “modulation of pinacidil-induced DMR response (N-DMR amplitude)” value (A549 cells [2]; ~1 hr pretreatment, 40 μM pinacidil, amplitude 30 min after stimulation) was −86% and −95%.
With `CCCCCCCCCCCCCC(=O)O[C@@H]1[C@@H](C)[C@@]2(O)[C@@H](C=C(CO)C[C@]3(O)C(=O)C(C)=C[C@@H]23)[C@@H]2C(C)(C)[C@]12OC(C)=O` [PMA, Phorbol 12-myristate 13-acetate] the “DMR signal triggered by the ligand (primary profile), second ligand panel” value (shortened to “DMR signal triggered … second ligand panel”) (A549 cells [1]; A549 cells) was “robust DMR signals”.
`N#CC(=C(/N)Sc1ccccc1N)/C(C#N)=C(\N)Sc1ccccc1N` [U0126] was tested, and the “modulation of the EGF-induced DMR signal” value (quiescent A431 cells) was “significantly and selectively attenuated the N-DMR and the RP-DMR signals”.
`O=c1ccn([C@@H]2O[C@H](COP(=O)(O)OP(=O)(O)O)[C@@H](O)[C@H]2O)c(=O)[nH]1` [UDP] was tested, and the “DMR signal triggered by the ligand (primary profile)” value (A549 cells [1]; A549 cells, ligand 10 μM) was “robust DMR signals”.
For `O=c1ccn([C@@H]2O[C@H](COP(=O)(O)OP(=O)(O)OP(=O)(O)O)[C@@H](O)[C@H]2O)c(=O)[nH]1` [UTP], the “DMR signal triggered by the ligand (primary profile)” value (A549 cells [1]; A549 cells, ligand 10 μM) was “robust DMR signals”.
In the case of `Nc1ncnc2c1ncn2[C@@H]1O[C@H](CO)[C@@H](O)[C@H]1O` [adenosine], the “DMR signal triggered by the ligand (primary profile)” value (A549 cells [1]; A549 cells, ligand 10 μM) is reported as “robust DMR signals”.
In the case of `CCCCCCCC/C=C/CCCCCCCC(=O)O` [elaidic acid], the “DMR signal triggered by the ligand (primary profile)” value (A549 cells [1]; A549 cells, ligand 10 μM) is reported as “robust DMR signals”.
With `CNC[C@H](O)c1ccc(O)c(O)c1` [epinephrine] the “DMR signal triggered by the ligand (primary profile)” value (A549 cells [1]) was “robust DMR signals”.
`NCCc1c[nH]cn1` [histamine] was tested, and the “DMR signal triggered by the ligand (primary profile)” value (A549 cells [1]; A549 cells, ligand 10 μM) was “robust DMR signals”.
`CCCCC[C@H](O)/C=C/C=C\C=C\C=C\[C@@H](O)[C@@H](O)CCCC(=O)O` [lipoxin A4] was tested, and the “DMR signal triggered by the ligand (primary profile)” value (A549 cells [1]; A549 cells, ligand 10 μM) was “robust DMR signals”.
For `CC(N/C(=N\C#N)Nc1ccncc1)C(C)(C)C` (stereo not shown) [pinacidil], the “DMR signal triggered … second ligand panel” value (A549 cells [1]; A549 cells) was “robust DMR signals”.
`CC(=O)c1c(O)c(C)c(O)c(Cc2c(O)c3c(c(C(=O)/C=C/c4ccccc4)c2O)OC(C)(C)C=C3)c1O` [rottlerin] was tested, and the “modulation of the EGF-induced DMR signal” value (quiescent A431 cells; [3]) was “specifically caused the truncation of the early P-DMR event, as well as part of the early N-DMR event”.
With `NCCCNCCCCNCCCN` [spermine] the “DMR signal triggered by the ligand (primary profile)” value (A549 cells [1]; A549 cells, ligand 10 μM) was “robust DMR signals”.
With BML-265 the “modulation of the EGF-induced DMR signal” value (quiescent A431 cells; [3]) was “almost completely blocked”.
For SFLLR-amide, the “DMR signal triggered by the ligand (primary profile)” value (A549 cells [1]; A549 cells, ligand 10 μM) was “robust DMR signals”.
With SLIGKV-NH2 the “DMR signal triggered by the ligand (primary profile)” value (A549 cells [1]; A549 cells, ligand 10 μM) was “robust DMR signals”.
In the case of “adrenodullin: adrenodullin receptor agonist (YRQSMNNFQGLRSFGCRFGTCTVQKLAHQIYQFTDKDKDNVAPRSKISPQGY; ends and bridges not checked; cysteine pairing not given here; UniProt P35318 95-146, looked up)”, the “DMR signal triggered by the ligand (primary profile)” value (A549 cells [1]; A549 cells, ligand 10 μM) is reported as “robust DMR signals”.
angiotensin was tested, and the “DMR signal triggered by the ligand (primary profile)” value (A549 cells [1]; A549 cells, ligand 10 μM) was “robust DMR signals”.
For neuropeptide Y, the “DMR signal triggered by the ligand (primary profile)” value (A549 cells [1]; A549 cells, ligand 10 μM) was “robust DMR signals”.
For poly(I:C), the “DMR signal triggered … second ligand panel” value (A549 cells [1]; A549 cells) was “robust DMR signals”.
